Experimental data from ChEMBL document CHEMBL5604066, “ASAP - DENV-4 NS2B-NS3 protease fluorescence dose response” (2024).

Target: T1, NS3 protease (dengue virus type 4, UniProt A0A0K0TQ36)
T1 sequence (A0A0K0TQ36 whole entry): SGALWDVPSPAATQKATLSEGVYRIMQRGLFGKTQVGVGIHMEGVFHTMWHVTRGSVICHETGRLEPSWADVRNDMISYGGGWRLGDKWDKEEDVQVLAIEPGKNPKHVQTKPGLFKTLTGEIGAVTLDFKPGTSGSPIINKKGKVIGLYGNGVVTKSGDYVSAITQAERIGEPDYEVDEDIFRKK
Assay: Functional biochemical assay to identify treatments for viral infectious disease that targets Dengue virus type 4 NS2B-NS3 protease. Utilizing a direct enzyme activity measurement method, reading the fluorescence intensity is used to characterize the relative potency of inhibitors as IC50.
Design: species or system Philippines/H241/1956

N#Cc1ccc(-c2nc3c(C(=O)Nc4ccc5c(c4)CNC5)cc(F)cc3[nH]2)cc1
IC50: 1.92 µM

COc1cccc(-c2nc3c(C(=O)Nc4ccc5c(c4)CNC5)cc(F)cc3[nH]2)c1
IC50: 5.32 µM

O=C(Nc1ccc2c(c1)CNC2)c1cc(F)cc2[nH]c(-c3cccc(F)c3)nc12
IC50: 3.73 µM

Cc1cccc(-c2nc3c(C(=O)Nc4ccc5c(c4)CNC5)cc(F)cc3[nH]2)c1
IC50: 5.9 µM

Cc1ccccc1-c1nc2c(C(=O)Nc3ccc4c(c3)CNC4)cc(F)cc2[nH]1
IC50: 3.24 µM

NCc1ccc(-c2csc3cc(C(=O)Nc4ccc5c(c4)CNC5)ccc23)cc1
IC50: 53.2 µM

NCc1csc2cc(C(=O)Nc3ccc4c(c3)CNC4)ccc12
IC50: 11.8 µM

O=C(Nc1ccc2c(c1)CNC2)c1cccc2c(C3CNC3)n[nH]c12
IC50: 32.2 µM
